This note sets out measurements from patent US9763923B2, “Composition for reducing senescence of cell or subject including BRAF inhibitor and use thereof” (Samsung Electronics Co., Ltd., priority 2015, dated 2017).

What all share (type): cell-based
In test [1] the test system is senescent human dermal fibroblast (HDF) M11 cells. Kind of test: Lipofuscin accumulation by autofluorescence (FACS). The conditions noted are these: 0.1 μM, about 3 weeks, vs DMSO. The protocol: (§1) In order to examine whether senescent cells proliferate in response to treatment with BRAF inhibitors, human dermal fibroblast (HDF) M11 cells taken from a child are cultured in Dulbecco's Modified Eagle's Medium (DMEM) containing a high concentration of glucose, glutamine, and pyruvate, and 10% (v/v) fetal bovine serum (FBS), and 1× penicillin/streptomycin at about 37° C. and 5% CO2 atmosphere, thereby obtaining senescent cells. As for the senescent cells, cells that are passaged 35 times and whose doubling time is about 10 days or longer are used.
(§2) As described in 1, 0.1 μM SB590885 is added to the prepared senescent cells, which are cultured in the presence of SB590885 for about 3 weeks. Cells treated with DMSO (Sigma-Adrich) alone are used as a negative control group.
As lipofuscin in senescent cells emits autofluorescence, accumulation of lipofuscin is analyzed by measuring the fluorescent radiation having a wavelength of 520 nm while irradiating the senescent cells with rays having a wavelength at about 488 nm using a FACSCaliber (Beckton Dickson). A relative autofluorescence ratio of the senescent cells cultured in the presence of SB590885 to the negative control group is calculated.
As described in 1, 0.1 μM TAK-632 is added to the prepared senescent cells, which are cultured in the presence of TAK-632 for about 3 weeks. Cells treated with DMSO (Sigma-Adrich) alone are used as a negative control group.
As described in 3(2), autofluorescence in the senescent cells is measured and a relative autofluorescence ratio of the senescent cells cultured in the presence of TAK-632 to the negative control group is calculated.
As described in 1, 0.1 μM vemurafenib is added to the prepared senescent cells, which are cultured in the presence of vemurafenib for about 3 weeks. Cells treated with DMSO (Sigma-Adrich) alone are used as a negative control group.
As described in 3.(2), autofluorescence in the senescent cells is measured and a relative autofluorescence ratio of the senescent cells cultured in the presence of vemurafenib to the negative control group is calculated.

For test [2] the test system is unchanged. Put plainly: Lysosome accumulation (LysoTracker Blue DND-22, FACS). The following applies: 0.1 μM, about 3 weeks, vs DMSO. As for the experimental part: as §1, §2
In order to measure lysosome accumulation in senescent cells, the prepared senescent cells are stained using a LysoTracker®Blue DND-22 (Life Technologies, Cat. No. L-7525). The amount of lysosome is quantified by measuring the fluorescent radiation having a wavelength of 422 nm while irradiating the stained senescent cells with rays having a wavelength at about 373 nm using a FACSCaliber (Beckton Dickson). The amount (%) of lysosome in the cells cultured in the presence of SB590885 relative to that of the negative control group is shown in FIG. 4C.
As described in 3(2), the amount of lysosomes in senescent cells is measured and the amount (%) of lysosome in the cells cultured in the presence of TAK-632 relative to that of the negative control group is shown in FIG. 5C.
As described in 3.(2), the amount of lysosomes in senescent cells is measured and the amount (%) of lysosome in the cells cultured in the presence of vemurafenib relative to that of the negative control group is shown in FIG. 6C.

The test system is the same in test [3]. Put plainly: Relative proliferation rate of senescent cells (SYBR Green I DNA quantification). The conditions noted are these: 5 μM, about 3 weeks, vs DMSO negative control. The protocol: as §1
The prepared senescent cells are inoculated at a density of 1000 cells/well in a 96-well plate. The BRAF inhibitor is added to the inoculated cells at a final concentration of 5 μM. SB590885, vemurafenib (PLX4032, RG7204), TAK-632, CEP-32496, GDC-0879, PLX-4720, ZM 336372, Sorafenib tosylate, Sorafenib, GW5074, Dabrafenib (GSK2118436), AZ 628, RAF265 (CHIR-265), and NVP-BHG712 are used as BRAF inhibiting drugs. Cells treated with dimethyl sulfoxide (DMSO) (Sigma-Aldrich) alone are used as a negative control group. The medium is replaced with a fresh medium containing the drug or DMSO alone once every four days. About 3 weeks after initial addition of the drug, 0.1% (w/v) SYBR Green I (Life Technologies, Cat. No. S-7563) is used to quantify DNA, and the number of cells is calculated from the DNA quantity measured.
The number of the senescent cells in the drug-treated group is compared to the number of the cells in the negative control group so as to calculate a relative proliferation rate. The relative proliferation rates of senescent cells treated with BRAF inhibitors to that of the negative control group are shown in FIG. 1.
The senescent cells prepared as described in 1 are inoculated at a density of 1000 cells/well in a 96-well plate. […]
Then, SYBR Green I (Life Technologies, Cat. No. S-7563) is used to quantify DNA in the senescent cells thus cultured, and the number of cells is calculated from the DNA quantity measured. […]

The test system is the same in test [4]. Put plainly: Mitochondrial reactive oxygen species (MitoSOX Red). The conditions noted are these: 0.1 μM, about 3 weeks, vs DMSO. As for the experimental part:
as §1, §2
In order to measure mitochondrial function in senescent cells, the amount of reactive oxygen species (ROS) in the prepared senescent cells is measured using a MitoSOX™ Red Mitochondrial Superoxide indicator (Life technologies). A relative ROS amount of the senescent cells cultured in the presence of SB590885 to that of the negative control group is shown in FIG. 4B. […] Accordingly, SB590885 inhibits mitochondrial damage in senescent cells.
As described in 3(2), the amount of ROS in the senescent cells is measured. A relative ROS ratio of the senescent cells cultured in the presence of TAK-632 to the negative control group is calculated.
As described in 3.(2), the amount of ROS in the senescent cells is measured. A relative ROS ratio of the senescent cells cultured in the presence of vemurafenib to the negative control group is calculated.

Take `CN(C)CCOc1ccc(-c2nc(-c3ccncc3)c(-c3ccc4c(c3)CC/C4=N\O)[nH]2)cc1` [SB590885]: in test [1], the “autofluorescence relative to negative control group” value is “about 28%” and the “decrease in lipofuscin compared to negative control group” value (from here on “decrease in lipofuscin”) amounted to 70%. For the same compound, in test [2], the “decrease in lysosome accumulation compared to negative control group” value (“decrease in lysosome accumulation” for short) is recorded as “about 25%”. Also, the “proliferation rate higher than the negative control group” value in test [3] is reported as “about 30%”. Besides, in test [4], the “ROS relative to negative control group” value is given as “about 38%” and the “decrease in the amount of ROS compared to negative control group” value (“decrease in the amount of ROS” below) is recorded as “about 60%”.

In the case of `N#Cc1c(Oc2ccc(F)c(NC(=O)Cc3cccc(C(F)(F)F)c3)c2)ccc2nc(NC(=O)C3CC3)sc12` [TAK-632], in test [1], the “decrease in lipofuscin” value was approximately 48%. Also, the “decrease in lysosome accumulation” value in test [2] is listed as approximately 40%. In addition, the “proliferation rate higher than the negative control group” value in test [3] was “about 30%”. Besides, in test [4], the “decrease in the amount of ROS” value is recorded as approximately 40%.

For the compound `CCCS(=O)(=O)Nc1ccc(F)c(C(=O)c2c[nH]c3ncc(-c4ccc(Cl)cc4)cc23)c1F` [vemurafenib], the “decrease in lipofuscin” value in test [1] was “about 60%”. For the same compound, the “decrease in lysosome accumulation” value in test [2] is listed as “about 40%”. Also, in test [3], the “proliferation rate higher than the negative control group” value was “about 30%”. For the same compound, the “decrease in the amount of ROS” value in test [4] was “about 40%”.
